Laboratory results published in US8168199B2, “Dipeptidyl peptidase IV inhibitors for the treatment of schizophrenia and depression” (priority 2000, dated 2012).
“Also recorded” adds a separate entry of the source.

Test system: Male WistarF/Han (WF) rats
Assay: Response to novelty (Open field test), i.c.v. P32/98
Assay type: in vivo, rat
Description: Animals. Male WistarF/Han (WF) rats (Central Animal Laboratory, Hannover Medical School, Hannover, Germany, weighing 350-390 g, were housed in a sound-proof, temperature controlled (24.0±0.5° C.) room under specific pathogen free conditions with a 12/12 h dark/light cycle (lights on at 07.00 with illumination level of 80 Lux). Food (Altromin lab chow pellets) and tap water were available ad libitum. Under ketamine/xylasine (100/5 mg/kg, i.p.) anesthesia, the rats were fixed in a Kopf stereotaxic frame and implanted with cannulae (Plastic One, Inc., Roanoke, Va., USA) above the lateral ventricle. All research and animal care procedures were approved by the Lower Saxony district government (Hannover, Germany) and followed principles described in the European Community's Council Directive of 24 Nov. 1986 (86/609/EEC).
Surgery and i.c.v. application. For surgery, rats were anesthetized and prepared with i.c.v. cannulaes (coordinates: A: −0.7 mm caudal, L: 1.4 mm lateral to bregma; and V: 3.2 mm ventral to the skull surface; tooth bar +3.0 above ear bars) using standard stereotaxic procedures as described in detail elsewhere (von Hörsten et al., 1998a,b,c). […]
Response to novelty (Open field test). […] Spontaneous activity during a single continuous test session of 15 min was recorded using a video path analyzer system (E61-21 Video Path Analyser system, Coulbourn instruments, PA, U.S.A.). […] Furthermore, the total incidence of fecal boli was counted after each session and the incidence and duration (sec) of grooming behavior was simultaneously recorded from a video monitor by a person blind to the treatment of the animals (von Hörsten et al., 1998c).
Statistical analysis. For statistical analysis, behavioral raw data from every test minute were analyzed by two-way analyses of variance (ANOVA) for repeated measures (factors: treatment and time as a repeated measurement). Data obtained as totals from a session were analyzed by one-way (factor: treatment) ANOVA. […]

CC[C@H](C)[C@H](N)C(=O)N1CCSC1 [P32/98]
activity in the open field (distance traveled) (i.c.v. 0.05, 5, 500 nmol, 60 min before test, four consecutive minutes, vs aCSF): no effect on activity; also recorded: no significant effect
time spent close to the wall in the open field (i.c.v. 0.05, 5, 500 nmol, 60 min before test, sum of four consecutive minutes, vs aCSF): dose-dependent reduction; also recorded: significant effect
dosage already effective on time spent close to the wall (i.c.v., open field): 50 pmol
